Results from PubChem BioAssay (NCI).
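Step 1: Grow cells in 96-well plates. Step 2: Expose to compound for 48 hours at 5 concentrations. Step 3: Interpolate endpoints linearly; if unreached, use highest concentration. GI50 = concentration required for 50% inhibition of growth. At the TGI there is no net growth.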

Columns and labels:
Assay in all cases: DTP human tumour cell line panel, 48 h; in the data active means GI50 below about 0.43 µM; inactive means the rest
786-0 renal = system: 786-0 renal
A498 renal = system: A498 renal
A549 NSCLC = system: A549 NSCLC
ACHN renal = system: ACHN renal
BT-549 breast = system: BT-549 breast
CAKI-1 renal = system: CAKI-1 renal
CCRF-CEM leukemia = system: CCRF-CEM leukemia
COLO 205 colon = system: COLO 205 colon
DU-145 prostate = system: DU-145 prostate
EKVX NSCLC = system: EKVX NSCLC
HCC-2998 colon = system: HCC-2998 colon
HCT-116 colon = system: HCT-116 colon
HCT-15 colon = system: HCT-15 colon
HL-60(TB) leukemia = system: HL-60(TB) leukemia
HOP-62 NSCLC = system: HOP-62 NSCLC
HOP-92 NSCLC = system: HOP-92 NSCLC
HS 578T breast = system: HS 578T breast
HT29 colon = system: HT29 colon
IGROV1 ovarian = system: IGROV1 ovarian
K-562 leukemia = system: K-562 leukemia
KM12 colon = system: KM12 colon
LOX IMVI melanoma = system: LOX IMVI melanoma
M14 melanoma = system: M14 melanoma
MALME-3M melanoma = system: MALME-3M melanoma
MCF7 breast = system: MCF7 breast
MDA-MB-231 breast = system: MDA-MB-231 breast
MDA-MB-435 = system: MDA-MB-435
MOLT-4 leukemia = system: MOLT-4 leukemia
NCI-H226 lung = system: NCI-H226 lung
NCI-H23 lung = system: NCI-H23 lung
NCI-H460 lung = system: NCI-H460 lung
NCI-H522 lung = system: NCI-H522 lung
NCI/ADR-RES ovarian = system: NCI/ADR-RES ovarian
OVCAR-3 ovarian = system: OVCAR-3 ovarian
OVCAR-4 ovarian = system: OVCAR-4 ovarian
OVCAR-5 ovarian = system: OVCAR-5 ovarian
OVCAR-8 ovarian = system: OVCAR-8 ovarian
PC-3 prostate = system: PC-3 prostate
RPMI-8226 leukemia = system: RPMI-8226 leukemia
RXF 393 renal = system: RXF 393 renal
SF-268 CNS = system: SF-268 CNS
SF-295 CNS = system: SF-295 CNS
SF-539 CNS = system: SF-539 CNS
SK-MEL-28 melanoma = system: SK-MEL-28 melanoma
SK-MEL-5 melanoma = system: SK-MEL-5 melanoma
SK-OV-3 ovarian = system: SK-OV-3 ovarian
SN12C renal = system: SN12C renal
SNB-19 CNS = system: SNB-19 CNS
SNB-75 CNS = system: SNB-75 CNS
SR leukemia = system: SR leukemia
SW-620 colon = system: SW-620 colon
T-47D breast = system: T-47D breast
TK-10 renal = system: TK-10 renal
U251 CNS = system: U251 CNS
UACC-257 melanoma = system: UACC-257 melanoma
UACC-62 melanoma = system: UACC-62 melanoma
UO-31 renal = system: UO-31 renal

COc1ccc(C2C3=C(COC3=O)N(CCO)c3cc4c(cc32)CCC4)cc1OC (stereo unspecified)
> 10.3 µM: TGI (HT29 colon)
> 16.3 µM: TGI (HCC-2998 colon)
6.43 µM: TGI (SF-539 CNS)
332 nM: TGI (OVCAR-3 ovarian)
1310 nM: TGI (SF-295 CNS)
448 nM: TGI (MDA-MB-435)
> 36.4 µM: TGI (NCI/ADR-RES ovarian)
> 15 µM: TGI (HS 578T breast)
> 10.5 µM: TGI (HL-60(TB) leukemia)
inactive: GI50 (786-0 renal) 5.56 µM | GI50 (A549 NSCLC) 1130 nM | GI50 (ACHN renal) 4.32 µM | GI50 (BT-549 breast) 3.42 µM | GI50 (CAKI-1 renal) 858 nM | GI50 (CCRF-CEM leukemia) 1730 nM | GI50 (COLO 205 colon) 533 nM | GI50 (DU-145 prostate) 574 nM | GI50 (EKVX NSCLC) 2950 nM | GI50 (HCC-2998 colon) 945 nM | GI50 (HCT-116 colon) 524 nM | GI50 (HCT-15 colon) 1650 nM | GI50 (HOP-62 NSCLC) 1080 nM | GI50 (HOP-92 NSCLC) > 50 µM | GI50 (HS 578T breast) 454 nM | GI50 (HT29 colon) 620 nM | GI50 (K-562 leukemia) 470 nM | GI50 (LOX IMVI melanoma) 1530 nM | GI50 (M14 melanoma) 542 nM | GI50 (MDA-MB-231 breast) 2520 nM | GI50 (MOLT-4 leukemia) 2100 nM | GI50 (NCI-H226 lung) > 10.7 µM | GI50 (NCI-H23 lung) 1360 nM | GI50 (NCI-H522 lung) 514 nM | GI50 (NCI/ADR-RES ovarian) 2520 nM | GI50 (OVCAR-4 ovarian) 901 nM | GI50 (OVCAR-5 ovarian) 3.59 µM | GI50 (OVCAR-8 ovarian) 1740 nM | GI50 (PC-3 prostate) 524 nM | GI50 (RPMI-8226 leukemia) 2640 nM | GI50 (SF-268 CNS) 1780 nM | GI50 (SF-539 CNS) 496 nM | GI50 (SK-MEL-28 melanoma) 697 nM | GI50 (SK-OV-3 ovarian) 746 nM | GI50 (SN12C renal) 3.41 µM | GI50 (SNB-19 CNS) 2160 nM | GI50 (T-47D breast) 797 nM | GI50 (U251 CNS) 1150 nM | GI50 (UACC-257 melanoma) > 50 µM | GI50 (UO-31 renal) 1130 nM
2480 nM: TGI (SNB-75 CNS)
7.71 µM: TGI (COLO 205 colon)
> 29.5 µM: TGI (NCI-H460 lung)
> 50 µM: TGI (786-0 renal) | TGI (A549 NSCLC) | TGI (ACHN renal) | TGI (BT-549 breast) | TGI (CAKI-1 renal) | TGI (CCRF-CEM leukemia) | TGI (EKVX NSCLC) | TGI (HCT-116 colon) | TGI (HCT-15 colon) | TGI (HOP-62 NSCLC) | TGI (HOP-92 NSCLC) | TGI (K-562 leukemia) | TGI (KM12 colon) | TGI (LOX IMVI melanoma) | TGI (MALME-3M melanoma) | TGI (MCF7 breast) | TGI (MDA-MB-231 breast) | TGI (MOLT-4 leukemia) | TGI (NCI-H226 lung) | TGI (NCI-H23 lung) | TGI (OVCAR-4 ovarian) | TGI (OVCAR-5 ovarian) | TGI (OVCAR-8 ovarian) | TGI (PC-3 prostate) | TGI (RPMI-8226 leukemia) | TGI (SF-268 CNS) | TGI (SK-MEL-28 melanoma) | TGI (SK-MEL-5 melanoma) | TGI (SK-OV-3 ovarian) | TGI (SN12C renal) | TGI (SNB-19 CNS) | TGI (SR leukemia) | TGI (SW-620 colon) | TGI (T-47D breast) | TGI (TK-10 renal) | TGI (U251 CNS) | TGI (UACC-257 melanoma) | TGI (UACC-62 melanoma) | TGI (UO-31 renal)
active: GI50 (A498 renal) 242 nM | GI50 (HL-60(TB) leukemia) 328 nM | GI50 (IGROV1 ovarian) 274 nM | GI50 (KM12 colon) 297 nM | GI50 (MALME-3M melanoma) 291 nM | GI50 (MCF7 breast) 176 nM | GI50 (MDA-MB-435) 132 nM | GI50 (NCI-H460 lung) 336 nM | GI50 (OVCAR-3 ovarian) 127 nM | GI50 (RXF 393 renal) 207 nM | GI50 (SF-295 CNS) 171 nM | GI50 (SK-MEL-5 melanoma) 246 nM | GI50 (SNB-75 CNS) 253 nM | GI50 (SR leukemia) 253 nM | GI50 (SW-620 colon) 328 nM | GI50 (UACC-62 melanoma) 318 nM
> 42.7 µM: TGI (IGROV1 ovarian)
> 20 µM: TGI (A498 renal)
2130 nM: TGI (DU-145 prostate)
> 11.8 µM: TGI (M14 melanoma)
